Results as given in patent EP4733383A1, “CULTURE MEDIUM AND BLOOD CELL CLONE, AND METHOD FOR PRODUCING SAME” (Japan Institute for Health Security, priority 2023, dated 2024).
“Also recorded” adds a separate entry of the source.

Experiments:
Assay type in all cases: cell-based
[1] = system: mouse HSCs; assay: Short-term culture of HSCs (one week) with thyroid hormones and metabolites; conditions: 10 µM; for number of HSCs after culture (total cell count per colony): 300 mouse HSCs cultured one week in SF-O3, SCF 100ng/mL, TPO 100ng/mL, vs control (Ctl), Figure 1; for CD48 expression (mean fluorescence intensity of CD48 staining per colony): one week culture, CD48 is a marker for cells differentiating from HSCs, Figure 2
Experimental: Method: A population containing mouse hematopoietic stem cells was processed using a cell sorter to enrich cells with the surface phenotype CD150^+ CD48^- EPCR^+ Lineage^- Sca-1^+c-Kit^+. These purified cells are hereinafter referred to as mouse HSCs. 300 mouse HSCs were cultured for one week at 37°C under 5% CO2 in medium containing SF-O3 (Sanko Junyaku), SCF 100ng/mL, and TPO 100ng/mL. The number of cells in each colony formed after culture was counted. All subsequent culture experiments were performed at 37°C under 5% CO2. The concentration of each thyroid hormone and its metabolites was set to 10 µM. The control group (Ctl) medium contained no added thyroid hormones or metabolites.
Results: The groups treated with thyroid hormones and their metabolites were compared to the control group (Ctl). […] Circles represent counts per colony. Error bars indicate standard deviation. "Ctl" on the x-axis denotes the absence of added thyroid hormones and their metabolites. […] Circles represent measured values per colony. Error bars indicate standard deviation.
In Figures 1 and 2, T4 denotes thyroxine (T4). T3 denotes 3,3',5-triiodo-L-thyronine (T3). rT3 denotes 3,3',5'-triiodothyronine (rT3). 3,3'T2 denotes 3,3'-diiodo-L-thyronine (3,3'-T2). 3,5T2 denotes 3,5-diiodo-L-thyronine (3,5-T2). 3',5'T2 denotes 3',5'-diiodo-L-thyronine (3',5'-T2). T1AA denotes 3-iodothyroacetic acid (3-T1AA). T1AM denotes 3-iodothyronamine (3-T1AM). L-T0 denotes L-thyronine (T0). DL-T0 denotes the racemic form of thyronine.

[2] = system: EPCR-positive HSCs (EPCR+HSCs); assay: Culture of HSCs in the presence of carboxylic acid derivatives of thyronine; conditions: compared to the control group treated with DMSO alone; Figure 9
Description: T3 represents 3,3',5-triiodo-L-thyronine (T3). T3 acetic acid denotes 3,3',5-triiodo-L-thyroacetic acid (T3AA). 35T2 denotes 3,5-diiodo-L-thyronine (3,5-T2). 35T2 acetic acid denotes 3,5-diiodo-L-thyroacetic acid (3,5-T2AA). 33T2 denotes 3,3'-diiodo-L-thyronine (3,3'-T2).

[3] = system: mouse-derived HSCs; assay: Expansion of mouse-derived HSCs in serum-free medium containing PVA; conditions: serum-free medium containing PVA and T2
Experimental: Mouse-derived HSCs were cultured in serum-free medium containing PVA and T2 instead of the serum-containing T2 medium described above. HSC expansion was also promoted in this serum-free medium. Furthermore, HSC differentiation was suppressed. At this time, the optimal concentration of T2 was 0.1 µM.

[4] = system: EPCR+HSC; assay: 4-week culture of hematopoietic cells in the presence of T2
Description: The control group received only DMSO. Differentiated blood cells are c-Kit-negative cells. MPP3, MPP2, and MPP1 are multipotent progenitor cells (MPPs) referred to as hematopoietic progenitor cells. EPCR-HSC are EPCR-negative HSCs. EPCR-HSC are slightly less functional than EPCR-positive HSCs. EPCR+HSC are EPCR-positive HSCs. EPCR+HSC represent the most undifferentiated population among HSCs.

[5] = system: mouse-derived HSCs; assay: Culture of HSCs in medium containing a thyroid hormone derivative; conditions: medium containing sobetirome
Description: Additionally, HSC differentiation was suppressed.

SMILES | number of HSCs after culture (total cell count per colony) [1] | CD48 expression (mean fluorescence intensity of CD48 staining per colony) [1] | proportion of EPCR+HSCs after culturing HSCs [2] | also measured
N[C@@H](Cc1ccc(Oc2ccc(O)c(I)c2)c(I)c1)C(=O)O [3,3'-T2, 3,3'-Diiodo-L-thyronine] | high | maintained at low levels; also recorded: most strongly suppressed CD48 expression | increased | –
N[C@@H](Cc1cc(I)c(Oc2ccc(O)cc2)c(I)c1)C(=O)O [3,5-T2, 3,5-Diiodo-L-thyronine] | high | maintained at low levels | increased | –
O=C(O)Cc1cc(I)c(Oc2ccc(O)cc2)c(I)c1 [35T2 acetic acid, 3,5-Diiodo-L-thyroacetic acid] | – | – | increased | –
O=C(O)Cc1ccc(Oc2ccc(O)cc2)c(I)c1 [T1AA, 3-Iodo-L-thyroacetic acid] | tendency to promote cell proliferation | tendency to reduce CD48 expression | – | –
N[C@@H](Cc1ccc(Oc2ccc(O)c(I)c2)c(I)c1)C(=O)O [T2, 3,3'-Diiodo-L-thyronine] | – | – | – | HSC differentiation [3]: suppressed; HSC expansion [3]: promoted; optimal concentration of T2 [3]: 0.1 µM; expansion factor of EPCR+HSC ([4]; EPCR+HSC cultured 4 weeks in the presence of T2): 204 fold; EPCR+HSC expansion ([4]; EPCR+HSC cultured 4 weeks in the presence of T2, vs control group (DMSO), Figure 10): expanded more than in the control group; expansion of other cells derived from EPCR+HSC (EPCR-HSC, MPP3, MPP2, MPP1, differentiated blood cells) ([4]; EPCR+HSC cultured 4 weeks in the presence of T2, Figure 10): expanded
N[C@@H](Cc1cc(I)c(Oc2ccc(O)c(I)c2)c(I)c1)C(=O)O [T3, 3,3',5-triiodo-L-thyronine] | high | maintained at low levels | increased | –
N[C@@H](Cc1cc(I)c(Oc2cc(I)c(O)c(I)c2)c(I)c1)C(=O)O [T4, thyroxine] | high | maintained at low levels | – | –
N[C@@H](Cc1ccc(Oc2cc(I)c(O)c(I)c2)c(I)c1)C(=O)O [rT3, 3,3',5'-Triiodothyronine] | high | maintained at low levels | – | –
Cc1cc(OCC(=O)O)cc(C)c1Cc1ccc(O)c(C(C)C)c1 [sobetirome, Sobetirome] | – | – | – | HSC differentiation [5]: suppressed; HSC expansion [5]: promoted HSC expansion
